Here are results for one compound from patent publication US20080139638A1, “METHOD OF INCREASING GROWTH HORMONE SECRETION” (priority 2006, published 2008).

Entries after “also recorded” stand apart in the source; their conditions may differ. Read-outs that look alike come from different tables or passages of the source.

Assay [1] deals with growth hormone. Particulars: no exercise, cited from earlier work.
A further assay has as its system growth hormone release. Particulars: cited from earlier work.
Assay [2] deals with growth hormone. Particulars: 5.0 mg oral 60 minutes prior to bicycle exercise at 70% VO2max; cited from earlier work.
Another assay has as its system growth hormone secretion. The assay is described as follows: Serum growth hormone (ELISA/EIA) after oral melatonin supplementation 60 min before a single bout of resistance exercise (leg press). It counts as in vivo, human (healthy males). An excerpt: Thirty, healthy males who had partaken in regular resistance training for at least one year prior to the study were selected [n=30(22.72±3.28 years, 180.94±6.24 cm in height, and 82.08±9.18 kg in weight)] served as participants in the study. All of the participants passed a mandatory medical screening and were considered either as low or moderate risk or with no contradictions to exercise as outline by the American College of Sports Medicine (ACSM). Furthermore, the participants had not consumed any nutritional supplements, with the exclusion of vitamins, during a two month period prior the experiment.
Participants were matched by relative strength level (strength/body weight) and then randomly assigned to one of three different protocols. The supplement protocol consisted of a double-blind with groups receiving either 0.5 mg or 5.0 if melatonin (N-Acetyl-5-methoxytryptamine) or 1.0 mg of dextrose as a placebo. Participants were allowed a light breakfast at 8:00 am, wherein they were asked to record the consumed items, and then were required to fast until 2 pm. Seventy-five minutes prior to each exercise session, (12:30 pm), an intravenous cannula was inserted into a foreman vein. At 60 minutes prior to the exercise session, a baseline blood sample was taken and the participant orally received a supplement of placebo according top that outlined above. During the 60 minutes prior to exercise, the participants were required to rest in a supine position and blood samples were taken every 15 minutes up to the initiation of the resistance exercise. The leg press exercise consisted of 7 sets of 7 slow repetitions at 85% of the weight of the respective participant's one repetition maximum. Each set was preformed over the course of 30 seconds followed by 150 seconds of rest. The entire resistance exercise session was 21 minutes in duration.
Venous blood samples were obtained into 10 ml vacutainer tubes via a 20 gauge intravenous catheter inserted into a foreman vein after the subcutaneous injection of a topical anesthetic (2% Xylocaine). Following the five hour fast, blood samples were obtained at 15-minute intervals commencing 60 minutes prior to the resistance exercise session and then at 15-minute intervals for 120 minutes following the resistance exercise session. Blood samples were allowed to stand for 10 minutes at room temperature and then centrifuged at 2,400 rpm for 10 minutes. The serum was then separated and stored at (−)20° C. until analysis.
Using enzyme-linked immunosorbent assays (ELISA), and enzyme-immunosorbent assays (EIA), serum samples were assayed for growth hormone (Diagnostics Systems Laboratories, Webster, Tex.) using a Wallac Victor-1420 microplate reader from Perkin-Elmer Life Sciences. Boston, Mass. at either 450 or 405 nm respectively. An ultra-sensitive assay with a lower detection limit of 0.66 pg/ml was used to determine the levels of growth hormone without any detectable interference of circulation glycoproteins, GH-dependent peptide hormones, or growth hormone binding protein.
Statistical analyses were performed using factorial analysis of variance (ANOVA) with repeated measures for each criterion value. Pairwise comparisons were used to differentiate significant differences among the three groups. All statistical procedures were performed using SPSS 11.0 software and a probability level of <0.05 was adopted throughout.
Short half-life hormones which are highly sensitive to diurnal variations, such as growth hormone, display great variability in the baseline values as was observed. As such, peak serum hormone responses before and after resistance exercise were subtracted from the baseline values of each participant in order to determine the increase in the growth hormone resulting from the treatments.

`COc1ccc2[nH]cc(CCNC(C)=O)c2c1` [melatonin, N-Acetyl-5-methoxytryptamine]: the “plasma growth hormone concentrations” value with growth hormone [1] (0.5 mg oral) and in the assay with growth hormone [1] (5.0 mg oral) was “significant increase” each time. In addition, the “time of peak plasma growth hormone values” with growth hormone [1] (0.5 mg oral) and in the assay with growth hormone [1] (5.0 mg oral) was 60 min each time. The “effect on basal growth hormone levels” value in the assay with growth hormone release (0.4 mg/kg intravenous) and in the assay with growth hormone release (1 g oral) was “have been shown to have an effect” in each case. Moreover, the “effect on the 24-hr profile of growth hormone concentration” value in the assay with growth hormone release (small doses, less than 2 mg, oral) is given as “have not be shown to affect”. Further, the “growth hormone compared to placebo, area under the curve” value in the assay with growth hormone [2] is reported as “significant increases”. Also, the “time of growth hormone peak following exercise” value in the assay with growth hormone [2] is 30 min. Further, the “fold increase in serum growth hormone relative to placebo” value is reported as “approximately 3.16 fold” in the assay on growth hormone secretion (0.5 mg melatonin oral 60 min prior to exercise, post-exercise period) and approximately 2.35 fold in the assay on growth hormone secretion (5.0 mg melatonin oral, pre-exercise period, peak standardized to baseline). Further, the “serum growth hormone levels compared to placebo (in words)” value in the assay with growth hormone secretion (0.5 mg melatonin oral, post-workout period) is given as “statistically significant (p=0.045) elevations”; in the assay on growth hormone secretion (0.5 mg melatonin oral, pre-exercise period), “no statistical difference; also recorded: no significant increase”; in the assay on growth hormone secretion (5.0 mg melatonin oral, post-workout period), “statistically significant (p=0.045) elevations”; in the assay on growth hormone secretion (5.0 mg melatonin oral, pre-exercise period), “increased relative to placebo”. The “increase in growth hormone of the 0.5 mg group compared to the 5.0 mg group (in words)” value with growth hormone secretion (0.5 mg vs 5.0 mg melatonin oral, post-exercise) is listed as “significantly greater increase”.
